Assay results: patent US6562866B1 (priority 1998, dated 2003)

What was measured:
[1] = test system: liver cells around the central vein; assay: Microscopic grading of abnormal fat-containing cells in the liver of cholesterol-fed rabbits; type: in vivo, New Zealand White rabbits; conditions: 1% cholesterol plus 1 mg/kg Lovastatin or 0.1% rutin
Procedure: (§1) 24 three-month-old New Zealand White rabbits (Yeonam Horticulture and Animal Husbandry College, Korea), each weighing about 2.5 to 2.6 kg, were raised under a condition of temperature 20±2° C., relative humidity 55±5%, and photoperiod 12L/12D. […] RC4 diet comprises 7.6% moisture, 22.8% crude protein, 2.8% crude fat, 8.8% crude ash, 14.4% crude cellulose and 43.6% soluble nitrogen-free substances.

[2] = test system: main artery fatty streak / arterial endothelium; assay: Analysis for fatty streak in the main artery of cholesterol-fed rabbits; type: in vivo, New Zealand White rabbits; conditions: for A: Proportion (%) of fatty streak region to the total arterial area: 1% cholesterol diet plus 0.1% rutin or quercetin or 1 mg/kg Lovastatin, 6 weeks, Oil Red O staining
Procedure: as §1
The chest of each of the rabbits sacrificed in Step 2 was incised. The downward portion of the main artery from the site 1 cm above the aortic valve was cut out in a length of about 5 cm and the fat surrounding the main artery was removed. The main artery was incised in the middle along the longitudinal axis and pinned to a dish. The moist artery was photographed and, then, the staining of fatty streaks was carried out in accordance with the method of Esper, E., et al. (J. Lab. Clin. Med., 121, 103-110 (1993)) as follows.
A part of the incised main artery was washed three times with anhydrous propylene glycol for 2 min and stained for 30 min. with a saturated solution of Oil Red O (ORO, Sigma Co.) dissolved in propylene glycol. Thereafter, the artery was washed twice with 85% propylene glycol for 3 min. to remove remaining staining solution and, then washed with physiological saline. The artery was photographed and the photograph was traced. The area of stained region (fatty streak region) was determined with an image analyzer (LEICA, Q-600, Germany) and its proportion (%) to the total arterial area was calculated.

[3] = Chemical analysis of blood of rabbits fed 1% cholesterol diets; type: in vivo, New Zealand White rabbits; conditions: 6 weeks; for lowering of total plasma cholesterol level as compared to the comparative group: 0.1% in 1% cholesterol diet
Procedure: as §1, with “substances. Rutin and quercetin were purchased from Sigma Co. (St. Louis, Mo.).” for “substances.”
The rabbits were fed for 6 weeks while being allowed free access to the diets and water.
After six weeks, the rabbits were anesthetized with an intramuscular injection of ketamine (50 mg/kg) in the femoral region and sacrificed. A blood sample was taken from the heart of each rabbit, allowed to stand for 2 hours and centrifuged at 3,000 rpm for 15 minutes and the supernatant serum was separated and stored in a freezer before use.
The chemical analysis of blood was carried out by employing a blood chemical analyzer (CIBA Corning 550 Express, USA) to determine the changes in GOT, GPT, γ-GTP, total cholesterol and triglyceride levels.

ACAT = ACAT assay on liver microsomes of the fed rats; type: biochemical; conditions: liver microsomes of rats fed 0.1% test substance in 1% cholesterol diet, versus control group
Procedure: 1 g each of the livers taken from each group of rats of Example 2 was homogenized in 5 ml of homogenization medium (0.1 M KH2PO4, pH 7.4, 0.1 mM EDTA and 10 mM β-mercaptoethanol). The homogenate was centrifuged at 3,000×g for 15 min. at 4° C. and the supernatant thus obtained was centrifuged at 15,000×g for 15 min. at 4° C. to obtain a supernatant. The supernatant was put into an ultracentrifuge tube (Beckman) and centrifuged at 100,000×g for 1 hour at 4° C. to obtain microsomal pellets, which were then suspended in 3 ml of the homogenization medium and centrifuged at 100,000×g for 1 hour at 4° C. The pellets thus obtained were suspended in 1 ml of the homogenization medium. The protein concentration of the resulting suspension was determined by Lowry's method and then adjusted to 4 to 8 mg/ml. The resulting suspension was stored in a deep freezer (Biofreezer, Forma Scientific Inc.). […]
200 μl of the resulting supernatant was put in a scintillation bottle and 4 ml of scintillation fluid (Lumac) was added thereto. The mixture was assayed for radioactivity with 1450 Microbeta liquid scintillation counter (Wallacoy, Finland). ACAT activity was calculated as picomoles of cholesteryl oleate synthesized per min. per mg protein (pmoles/min/mg protein).

HMG-CoA reductase = molecular target: T1, HMG-CoA reductase (Rattus norvegicus, UniProt P51639); assay: HMG-CoA reductase activity assay on liver microsomes of the fed rats; type: biochemical; conditions: liver microsomes of rats fed 0.1% test substance in 1% cholesterol diet, versus control group
T1 construct: the supernatant was ultracentrifuged at 100,000×g for 60 minutes to obtain microsomal precipitates; from tissue; host or cells: liver microsomes of the fed rats
T1 sequence (P51639 1-887): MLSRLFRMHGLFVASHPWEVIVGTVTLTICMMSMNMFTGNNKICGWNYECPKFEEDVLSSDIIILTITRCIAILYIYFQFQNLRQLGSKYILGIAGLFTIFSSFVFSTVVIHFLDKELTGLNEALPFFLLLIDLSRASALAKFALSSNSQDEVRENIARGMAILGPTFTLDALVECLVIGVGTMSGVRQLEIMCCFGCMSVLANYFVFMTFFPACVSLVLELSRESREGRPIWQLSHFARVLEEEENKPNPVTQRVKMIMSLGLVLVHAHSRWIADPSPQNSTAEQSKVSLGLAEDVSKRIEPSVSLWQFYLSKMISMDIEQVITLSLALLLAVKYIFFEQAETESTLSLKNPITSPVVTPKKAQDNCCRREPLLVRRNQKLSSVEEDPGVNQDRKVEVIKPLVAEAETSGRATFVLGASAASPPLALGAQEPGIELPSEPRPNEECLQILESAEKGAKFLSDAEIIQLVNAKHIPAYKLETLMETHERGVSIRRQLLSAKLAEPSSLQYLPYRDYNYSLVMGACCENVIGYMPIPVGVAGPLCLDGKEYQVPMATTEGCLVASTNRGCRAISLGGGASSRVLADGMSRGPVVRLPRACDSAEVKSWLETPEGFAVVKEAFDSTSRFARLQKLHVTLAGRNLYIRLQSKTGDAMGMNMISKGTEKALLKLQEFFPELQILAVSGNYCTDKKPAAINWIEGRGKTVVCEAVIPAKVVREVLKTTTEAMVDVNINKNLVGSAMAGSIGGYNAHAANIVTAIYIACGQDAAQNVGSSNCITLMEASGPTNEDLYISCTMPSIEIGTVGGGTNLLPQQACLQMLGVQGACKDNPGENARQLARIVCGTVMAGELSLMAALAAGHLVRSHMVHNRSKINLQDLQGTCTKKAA
Procedure: In order to determine the activity of HMG-COA reductase, Hulcher's method was employed after some modification (see J. Lipid Res., 14, 625-641(1973)). In this method, the concentration of the coenzyme-A (CoA-SH), which is produced when HMG-CoA is reduced to a mevalonate salt by the action of HMG-CoA reductase, is determined by spectroscopy and the activity of HMG-CoA reductas e is calculated therefrom.
3g of liver tissue taken from each group of rats of Example 2 was washed successively with 100 ml of a cold saline (0.15M NaCl) and 100 ml of a cold buffer solution A (0.1M triethanolamine, HCl/0.2M EDTA/2 mM dithiothreitol (DTT)). The cold buffer solution A was added to the liver tissue in an amount of 2 ml per 1 g of the liver tissue and the mixture was homogenized with a homogenizer. The homogenate was centrifuged at 15,000×g for 15 minutes, and then, the supernatant was ultracentrifuged at 100,000×g for 60 minutes to obtain microsomal precipitates. The precipitates thus obtained was washed with a cold buffer solution A and kept in a 1.5 ml tube at −70° C. […]
Then, the reactant was mixed with 20 μl of DTNB buffer solution (3mM DTNB/0.1M triethanolamine/0.2M EDTA, pH 7.4) and the absorbance of the mixture was determined at 412 nm to calculate the amount of CoA-SH (activity of HMG-CoA reductase activity).

[4] = Plasma total cholesterol, HDL-cholesterol and neutral lipid in rats fed high-cholesterol diets; type: in vivo, Sprague-Dawley rats; conditions: six weeks
Procedure: 30 three-week-old white Sprague-Dawley rats (Taihan laboratory animal center, Korea), each weighing about 90 to 110 g, were evenly divided into three dietary groups by a randomized block design.
The rats were allowed to feed freely on the specified diet together with water for six weeks, the ingestion amount was recorded daily and the,rats were weighed every 7 days, and then the record was analyzed.
The rats of the dietary groups obtained in Step 1 were sacrificed and blood samples were taken therefrom. The blood was allowed to stand for 2 hours and centrifuged at 3,000 rpm for 15 minutes and the supernatant was separated and stored in a deep freezer before use. The chemical analysis of blood was carried out by employing a blood chemical analyzer (CIBA Corning 550 Express, USA) to determine the changes in total cholesterol, HDL-cholesterol and triglyceride levels.

ICR mice = assay: Toxicity of orally administered rutin (single oral dose, 10 day observation)
Procedure: 12 seven-week-old, specific pathogen-free ICR […] mice, six female mice each weighing about 25 to 29 g and six male mice each weighing about 34 to 38 g, were kept under an environment of 22±1° C., 55±5% relative humidity and 12L/12D photoperiod. Fodder (Cheiljedang Co., mouse and rat fodder) and water were sterilized and fed to the mice.
Further, on the 10th day, the mice were sacrificed and the internal organs were visually examined.

[5] = Administration of rutin capsules to humans, plasma lipid metabolism; type: in vivo, human; conditions: two men, daily oral dose of lomg/kg as capsule, 60 days, before vs after
Procedure: The plasma cholesterol and neutral lipid (triglyceride) contents were determined before and after the administration.

[6] = 1% cholesterol diet plus 0.1% rutin or quercetin or 1 mg/kg Lovastatin
[7] = 1% cholesterol diet plus 0.1% test substance

| Structure (SMILES) | A: Proportion (%) of fatty streak region to the total arterial area [2] | TG (triglyceride) [3, 6] | Total-C (total cholesterol) [3, 6] | Inhibition of HMG-CoA reductase activity (%) (HMG-CoA reductase) | reduction of neutral lipid content compared with control group ([4]; 0.1% in 1% cholesterol diet) | reduction of total plasma cholesterol level compared with control group ([4]; 0.1% in 1% cholesterol diet) | HDL-C (HDL-cholesterol) [4, 7] | TG (triglyceride) [4, 7] | lowering of total plasma cholesterol level as compared to the comparative group [3] | further results |
| --- | --- | --- | --- | --- | --- | --- | --- | --- | --- | --- |
| CC[C@H](C)C(=O)O[C@H]1C[C@@H](C)C=C2C=C[C@H](C)[C@H](CC[C@@H]3C[C@@H](O)CC(=O)O3)[C@H]21 [Lovastatin ®, Lovastatin, reference compound] | 5% | 65.6 mg/dL | 1209.5 mg/dL |  |  |  |  |  |  | microscopic features of the liver (FIGS. 2B, 2C) [1]: many cells containing excessive fat; layer of macrophage-lipid complex on the arterial endothelium (FIGS. 1B, 1C) ([2]; 1% cholesterol plus 1 mg/kg Lovastatin or 0.1% rutin): no or very thin layers |
| O=c1c(O)c(-c2ccc(O)c(O)c2)oc2cc(O)cc(O)c12 [Quercetin, quercetin] | 8% | 30.0 mg/dL | 820.0 mg/dL | 30% | 17% | 30% | 41 ± 3 mg/dL | 81 ± 4 mg/dL | 30% | % Inhibition on ACAT activity (ACAT): 20%; increase of HDL-C/Total-C ratio compared with control group ([4]; 0.1% in 1% cholesterol diet): 54%; HDL-C/Total-C ratio (row head is a formula, MATH:00001) [4, 7]: 43; Total-C (total cholesterol) [4, 7]: 95 ± 5 mg/dL |
| C[C@@H]1O[C@@H](OC[C@H]2O[C@@H](Oc3c(-c4ccc(O)c(O)c4)oc4cc(O)cc(O)c4c3=O)[C@H](O)[C@@H](O)[C@@H]2O)[C@H](O)[C@H](O)[C@H]1O [Rutin] | 10% | 35.3 mg/dL | 798.2 mg/dL | 40% | 20% | 21% | 36 ± 2 mg/dL | 78 ± 3 mg/dL | 30% | survival at day 10 (ICR mice; mice, single oral dose of 1,000 mg/kg): All the mice were alive; pathological abnormality at autopsy (ICR mice; mice, single oral dose of 1,000 mg/kg, day 10): did not develop any pathological abnormality; toxicity (ICR mice; mouse, in vivo, po, 160 mg/kg): no toxicity; reduction of plasma cholesterol content [5]: 25%; reduction of plasma neutral lipid (triglyceride) content [5]: 20%; GOT [3, 6]: 87.0 IU/l; GPT [3, 6]: 33.9 IU/l; γ-GTP [3, 6]: 1.92 IU/l |
